In article PMC11855827, “High-Throughput Screening of Five Compound Libraries for Anthelmintic Activity and Toxicity Leads to the Discovery of Two Flavonoid Compounds” (International Journal of Molecular Sciences, 2025):
“And” between values parts separate entries of the source, which are not always exact repeats. Equal values may be shown once. Read-outs that look alike come from different tables or passages of the source.

Test system: C. elegans
[1] = Table S2, C. elegans SS assay, 110 μM, 0 h, averages of 4 data points
[2] = Table S2, C. elegans SS assay, 110 μM, 24 h, averages of 4 data points

Row | SMILES | Percentage of motility inhibition 0 h [1] | Percentage of motility inhibition 24 h [2] [%] | Percentage of motility inhibition 0 h (110 µM) [%] | Percentage of motility inhibition 24 h (110 µM) [%]
1 | C[C@H](CC[C@@H](O[C@@H]1O[C@H](CO)[C@@H](O)[C@H](O)[C@H]1O[C@H]1O[C@@H](CO)[C@H](O)[C@@H](O)[C@@H]1O)C(C)(C)O)C1CC[C@@]2(C)C3CC=C4C(CC[C@H](O)C4(C)C)[C@]3(C)C(=O)C[C@]12C (stereo partly drawn) [11-Oxomogroside IIa] | 0% | 0 | – | –
2 | C[C@H](CC[C@@H](O[C@@H]1O[C@H](CO[C@@H]2O[C@H](CO)[C@@H](O)[C@H](O)[C@H]2O)[C@@H](O)[C@H](O)[C@H]1O[C@@H]1O[C@H](CO)[C@@H](O)[C@H](O)[C@H]1O)C(C)(C)O)[C@H]1CC[C@@]2(C)[C@@H]3CC=C4[C@@H](CC[C@H](O[C@@H]5O[C@H](CO[C@@H]6O[C@H](CO)[C@@H](O)[C@H](O)[C@H]6O)[C@@H](O)[C@H](O)[C@H]5O)C4(C)C)[C@]3(C)C(=O)C[C@]12C [11-oxo-mogroside V] | 3% | 24 | – | –
3 | COc1c(C(C)C)cc2c(c1O)C1(C(=O)O)CCCC(C)(C)C1CC2 (stereo not drawn) [12-O-Methylcarnosic acid] | 5% | 11 | – | –
4 | C=C1C2CC3(C1O)C1CC4C5(C)CCC(O)C4(C1N(CC)C5)C3CC2O (stereo not drawn) [12‐Epinapelline] | 0% | 9 | – | –
5 | CCc1ccc(O)c2cc3c(nc12)-c1cc2c(c(=O)n1C3)COC(=O)[C@]2(O)CC [12‐Ethyl‐9‐hydroxycamptothecin] | 16% | 27 | – | –
6 | COc1ccc2c(C)c3[n+](cc2c1OC)CCc1cc2c(cc1-3)OCO2.[Cl-] [13‐Methylberberine (chloride)] | 0% | 0 | – | –
7 | C=C1CC[C@@H]2[C@](C)(CO)[C@H](O)CC[C@]2(C)[C@@H]1/C=C/C1=CCOC1=O [14-Deoxy-11,12-didehydroandrographolide] | 0% | 6 | – | –
8 | C/C=C1/CN2[C@H]3Cc4c([nH]c5ccccc45)[C@]2(O)C[C@@H]1[C@@]3(CO)C(=O)OC [16‐Epivoacarpine] | 7% | 2 | – | –
9 | C/C1=C\[C@@H]2[C@H](C/C=C(/CO)[C@@H](O)[C@@H]3[C@@H](O)[C@@H](C)C[C@]3(O)C1=O)C2(C)C [17-Hydroxyisolathyrol] | 13% | 29 | – | –
10 | CC1(C)[C@@H](O)CC[C@]2(C)[C@H]3C(=O)C=C4[C@@H]5C[C@@](C)(C(=O)O)CC[C@]5(C)CC[C@@]4(C)[C@]3(C)CC[C@@H]12 [18β-Glycyrrhetinic acid] | 15% and 6% | – | – | –
11 | CC(C)=CCC[C@@](C)(O)[C@H]1CC[C@]2(C)[C@@H]1[C@H](O)C[C@@H]1[C@@]3(C)CC[C@H](O)C(C)(C)[C@@H]3[C@@H](O[C@@H]3O[C@H](CO)[C@@H](O)[C@H](O)[C@H]3O[C@@H]3O[C@@H](C)[C@H](O)[C@@H](O)[C@H]3O)C[C@]12C [20(R)-Ginsenoside Rg2] | 0% | 8 | – | –
12 | CC(C)=CCC[C@@](C)(O)[C@H]1CC[C@]2(C)[C@@H]1[C@H](O)C[C@@H]1[C@@]3(C)CC[C@H](O[C@@H]4O[C@H](CO)[C@@H](O)[C@H](O)[C@H]4O)C(C)(C)[C@@H]3CC[C@]12C [20(R)-Ginsenoside Rh2] | 11% | 6 | – | –
13 | CC(C)=CCC[C@@](C)(O)[C@H]1CC[C@]2(C)[C@@H]1[C@H](O)C[C@@H]1[C@@]3(C)CC[C@H](O)C(C)(C)[C@@H]3[C@@H](O)C[C@]12C [20(R)-Protopanaxatriol] | 0% | 21 | – | –
14 | CC(C)=CCC[C@](C)(O)[C@H]1CC[C@]2(C)[C@@H]1[C@H](O)C[C@@H]1[C@@]3(C)CC[C@H](O[C@@H]4O[C@H](CO)[C@@H](O)[C@H](O)[C@H]4O[C@@H]4O[C@H](CO)[C@@H](O)[C@H](O)[C@H]4O)C(C)(C)[C@@H]3CC[C@]12C [20(S)-Ginsenoside Rg3] | 0% | 0 | – | –
15 | CC1=C[C@@H]2C(=O)[C@]3(C=C(C)[C@H](O)[C@@]3(O)[C@@H]1O)[C@H](C)C[C@@H]1[C@H]2C1(C)C [20-Deoxyingenol] | 0% | 21 | – | –
16 | C=C(C)[C@@H]1CC[C@]2(C(=O)O)CC[C@]3(C)[C@H](CC[C@@H]4[C@@]5(C)CC[C@H](O)[C@@](C)(CO)[C@@H]5CC[C@]43C)[C@@H]12 [23-Hydroxybetulinic acid] | 13% | 5 | – | –
17 | CC(=O)O[C@@H]1C[C@@]23C[C@@]24CC[C@H](O[C@@H]2OC[C@@H](O)[C@H](O)[C@H]2O)C(C)(C)[C@@H]4CC[C@H]3[C@]2(C)C[C@@H]3O[C@@]4(C[C@@H](C)[C@@H]3[C@@]12C)OC[C@@]1(C)O[C@@H]41 [23-epi-26-Deoxyactein] | 0% | 5 | – | –
18 | CC(C)CCC[C@@H](C)[C@H]1CC[C@@]2(C)C3=C(CC[C@]12C)[C@@]1(C)CC[C@H](O)C(C)(C)[C@@H]1CC3 [24,25-Dihydrolanosterol] | 3% | 4 | – | –
19 | C=C(CC[C@@H](C)[C@H]1CC[C@@]2(C)[C@@H]3CC[C@H]4C(C)(C)[C@@H](OC(=O)/C=C/c5ccc(O)c(OC)c5)CC[C@@]45C[C@@]35CC[C@]12C)C(C)C [24-Methylenecycloartanyl ferulate] | – | – | 0 | 11
20 | CC(C)=CCc1c(O)cc2c(c1O)C(=O)C[C@@H](c1ccc(O)cc1)O2 [(2S)‐6‐Prenylnaringenin] | 0% | 0 | – | –
21 | COc1cc(O)c(CC=C(C)C)c2c1C(=O)C[C@@H](c1ccc(O)cc1)O2 [(2S)‐Isoxanthohumol] | 0% | 2 | – | –
22 | CC(C)=CCC[C@@](C)(O)[C@H]1CC[C@]2(C)[C@@H]1[C@H](O)C[C@@H]1[C@@]3(C)CC[C@H](O[C@@H]4O[C@H](CO)[C@@H](O)[C@H](O)[C@H]4O[C@@H]4O[C@H](CO)[C@@H](O)[C@H](O)[C@H]4O)C(C)(C)[C@@H]3CC[C@]12C [(20R)-Ginsenoside Rg3] | 22% | 15 | – | –
23 | CC(C)=CCC[C@@](C)(O)[C@H]1CC[C@]2(C)[C@@H]1[C@H](O)C[C@@H]1[C@@]3(C)CC[C@H](O)C(C)(C)[C@@H]3[C@@H](O[C@@H]3O[C@H](CO)[C@@H](O)[C@H](O)[C@H]3O)C[C@]12C [(20R)-Ginsenoside Rh1] | 13% | 5 | – | –
